Data reported in patent publication US8686021B2, “Use of a benzoyl derivative of 3-aminocarbazole for the treatment of a disorder associated with the production of prostaglandin E2 (PGE2)” (Aziende Chimiche Riunite Angelini Francesco A.C.R.A.F. …, priority 2005, dated 2014).

Columns and labels:
production of PGF2α = experiment: In-vitro activity test: inhibition of PGF2α production in IL-1β-stimulated A549 cells; format: cell-based, human; conditions: 18 hours
Description: (§1) This test is used to evaluate capability to inhibit the production of PGE2 and selectivity with respect to the production of PGF2, for each of the compounds under examination.
(§2) Cell line A549, human lung adenocarcinoma, which is particularly sensitive to stimulation with proinflammatory cytokines such as IL-1β, and, in response to that stimulation, particularly active in the production and release of two prostanoids: PGE2 and PGF2α (Thoren S., Jakobsson P. J. “Coordinate up- and down-regulation of glutathione-dependent prostaglandin E synthase and cyclooxygenase-2 in A549 cells. Inhibition by NS-398 and leukotriene C4”, Eur. J. Biochem. 2000, 267(21):6428-6434)) was used.
(§3) The cells were stimulated with IL-1β (1 ng/ml) and at the same time treated with the compounds under test for 18 hours in an appropriate culture medium (DMEM—Dulbecco's Modified Eagles Medium) enriched with 5% bovine foetal serum and L-glutamine (4 mM final) in an incubator at 37° C. and with a CO2 concentration of 5%.
(§4) After incubation the quantities of PGE2 and PGF2α produced and released into the supernatant were determined using an EIA kit (manufactured and marketed by Cayman Chemicals, Ann Arbor, Mich., USA).
(§5) The results, shown in Table 3, are expressed as percentage inhibition of the production of PGE2 and PGF2α at a concentration of […].

production of PGE2 = experiment: In-vitro activity test: inhibition of PGE2 production in IL-1β-stimulated A549 cells; format: cell-based, human; conditions: 18 hours
Description: as §1, §2, §3, §4, §5

[1] = tested on: pained behaviour induced by acetic acid in mice; experiment: In-vivo activity test: acetic acid-induced stretching (nociceptive test of inflammatory origin) in mice; conditions: female CD-1 mice; 30 mg/kg orally in methyl cellulose (MTC), 1 hour before acetic acid i.p.; mean±SD; vehicle MTC 58 ± 5
Method: This test makes it possible to evaluate the activity of the compounds according to this invention in a nociceptive test of inflammatory origin. Compound 1 was used for this purpose in an experimental model which provokes pained behaviour induced by acetic acid in mice (Stock, J. L. et al., J. Clin. Inv. 2001, 107:325-331). Female CD-1 mice weighing 25-30 g were used for the test.
The animals were treated orally with compound 1 (30 mg/kg) suspended in methyl cellulose (MTC). The control animals were treated with the vehicle (MTC) alone, orally.
One hour after treatment acetic acid (0.7% v/v in physiological solution, 16 μl/g of body weight) was injected into the animals intraperitoneally to induce inflammatory pain and check the effects of the treatment on the nociceptive response.
The number of stretches, which represents the evaluation parameter for the nociceptive response, was measured immediately after the administration of acetic acid and for the next 20 minutes.

production of PGI2 = experiment: Test on human primary endothelial cells (HUVEC): secretion of PGI2; format: cell-based
Method: This test is used to evaluate the ability of the compounds in Table 2 to inhibit the production of PGI2.
The absence of inhibitory activity on these prostanoids may ensure that the vasoprotective action of PGI2 is maintained and provides useful pharmacological information about the absence of adverse effects on the endothelium.
Compound 1 was used in the test.
The action of the compound under test was evaluated in HUVEC cells under basal and stimulation conditions (J. Immunol. 1989 Jun. 1; 142(11):3993-9).
The results are shown in Table 6 and are expressed as percentage inhibition in comparison with control enzyme activity.
Indomethacin was used as the reference compound.

[2] = 10 μM, A549 cells stimulated with IL-1β (1 ng/ml), EIA kit
[3] = A549 cells stimulated with IL-1β
[4] = Homo sapiens, 10 μM, A549 cells stimulated with IL-1β (1 ng/ml), EIA kit

Row | SMILES | % inhibition at 10 μM PGF2α (production of PGF2α; [2]) [%] | % inhibition at 10 μM PGE2 (production of PGE2; [2]) [%] | pIC50 PGF2α (production of PGF2α; [3]) | pIC50 PGE2 (production of PGE2; [3]) | further results
1 | CCn1c2ccccc2c2cc(NC(=O)c3cc([N+](=O)[O-])ccc3Cl)ccc21 [Compound 7] | 0 | 70 | – | – | –
2 | CCn1c2ccccc2c2cc(NC(=O)c3ccccc3Cl)ccc21 [Compound 1] | 16 | 82 | 4.1 | 5.7 | No. stretches in 20 min [1]: 40 ± 5; % inhibition, test for the secretion of PGI2, Basal (HUVEC) (production of PGI2; 10 μM, basal conditions): 0%; % inhibition, test for the secretion of PGI2, Stimulated (HUVEC) (production of PGI2; 10 μM, stimulation conditions): 0%
3 | CCn1c2ccccc2c2cc(NC(=O)c3ccccc3I)ccc21 [Compound 4] | 0 | 84 | <4 | 5.4 | –
4 | COc1ccc2c(c1)c(CC(=O)O)c(C)n2C(=O)c1ccc(Cl)cc1 [Indomethacin, reference compound] | – | – | – | – | inhibition at 10 µM (production of PGF2α; [4]): 100%; IC50 (production of PGF2α; Homo sapiens, A549 cells stimulated with IL-1β, read-out: pIC50 PGF2α (converted)): 2.51 nM; inhibition at 10 µM (production of PGE2; [4]): 100%; IC50 (production of PGE2; Homo sapiens, A549 cells stimulated with IL-1β, read-out: pIC50 PGE2 (converted)): 5.01 nM; inhibition at 10 µM (production of PGI2; Homo sapiens, stimulation conditions, read-out: % inhibition, test for the secretion of PGI2, Stimulated (HUVEC)): 100%
5 | CCn1c2ccccc2c2cc(NC(=O)c3cc(Cl)ccc3Cl)ccc21 [Compound 8] | 37 | 93 | – | – | –
6 | CCn1c2ccccc2c2cc(NC(=O)c3c(Cl)cccc3Cl)ccc21 [Compound 6] | 51 | 89 | – | – | –
7 | CCn1c2ccccc2c2cc(NC(=O)c3ccccc3C)ccc21 [Compound 2] | 44 | 83 | 4.3 | 5.3 | –
8 | CCn1c2ccccc2c2cc(NC(=O)c3ccccc3Br)ccc21 [Compound 3] | 0 | 81 | <4 | 5.5 | –
9 | CCn1c2ccccc2c2cc(NC(=O)c3ccccc3[N+](=O)[O-])ccc21 [Compound 5] | 0 | 27 | – | – | –
10 | CCn1c2ccccc2c2cc(NC(=O)c3ccccc3OC)ccc21 [A, reference compound] | 95 | 98 | – | – | –
11 | CCn1c2ccccc2c2cc(NC(=O)c3ccc(C)cc3)ccc21 [C, reference compound] | 49 | 43 | – | – | –
12 | CCn1c2ccccc2c2cc(NC(=O)c3ccccc3)ccc21 [B, reference compound] | 40 | 46 | – | – | –
